Data reported in EPA's ToxValDB 9.5 (doi:10.2903/j.efsa.2010.1704).
Converted amounts (≈) assume the structure as drawn.

What was measured:
Daphnia magna = conditions: chronic/long-term; duration: 21 days; reproduction
Colinus virginianus = conditions: acute, oral, mortality
Apis mellifera = conditions: acute; duration: 48 hours; oral; unspecified; mortality
Typhlodromus pyri = conditions: acute; duration: 7 days; mortality
Canidae = conditions: oral, Dog Other, organ weight
Anas platyrhynchos = conditions: oral, mortality
Oryctolagus sp. = conditions: reproduction developmental; body weight
Coturnix japonica = conditions: reproduction developmental
Pimephales promelas = conditions: chronic/long-term; duration: 35 days; growth
Oncorhynchus mykiss = conditions: acute; duration: 96 hours; mortality

Clc1ccc(C2(Cn3cncn3)CC(Br)CO2)c(Cl)c1 (stereo not given) [Bromuconazole]
NOEC (Daphnia magna): 0.02 mg/L | LC50 (Colinus virginianus; diet): > 778 mg/kg-day | LD50 (Colinus virginianus): > 2150 mg/kg-day | LD50 (Apis mellifera): > 100 µg/piece | LEL (Typhlodromus pyri): 260 g/ha | LC50 (Tagia sp.; acute, duration: 14 days, mortality): > 1000 mg/kg | NOEC (Tagia sp.; chronic/long-term, duration: 56 days): 37.2 mg/kg | NOAEL (Canidae; chronic, duration: 1 years): 2.5 mg/kg-day | NOAEL (Canidae; subchronic, duration: 90 days): 2.5 mg/kg-day | LD50 (Rattus norvegicus; acute, oral, F, mortality): 328 mg/kg-day | NOAEL (Rattus norvegicus; chronic, duration: 2 years, oral, diet, histopathology: nonneoplastic): 0.88 mg/kg-day | NOEL (Rattus norvegicus; chronic, histopathology: nonneoplastic): 13.8 mg/kg-day | NOAEL (Rattus norvegicus; developmental, development): 10 mg/kg-day | NOEL (Rattus norvegicus; reproduction developmental, body weight): 1.3 mg/kg-day | LD50 (Anas platyrhynchos; acute, unspecified): > 2150 mg/kg-day | LC50 (Anas platyrhynchos; short-term, feed): > 684 mg/kg-day | NOEL (Oryctolagus sp.): 12.5 mg/kg-day | NOEC (Coturnix japonica): 26.5 mg/kg-day | NOEC (Pimephales promelas): 0.065 mg/L | LC50 (Oncorhynchus mykiss): 1.7 mg/L (≈ 4.51 µM)
